Here are results for three cell lines from the supplement of paper PMC10307832.

Assay in all cases: relative viability (nuclei count vs DMSO), 5 days (fraction); higher = more cells survive
Compound in the test “AZ628 + Luminespib”: CC1=C(C=C(C=C1)NC(=O)C2=CC(=CC=C2)C(C)(C)C#N)NC3=CC4=C(C=C3)N=CN(C4=O)C [AZ628] + CCNC(=O)c1noc(-c2cc(C(C)C)c(O)cc2O)c1-c1ccc(CN2CCOCC2)cc1 [Luminespib] (partner 0.01 µM)
The procedure, abridged: (§1)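 The day after seeding in 1536-well plates, lung cancer cell lines were treated by pin tool with a single drug, or with a fixed anchor-drug dose together with five library-drug doses (not always all listed) in √10 steps. After 5 days, a combined fix-and-stain solution (final 0.05% Triton X-100, 1% formaldehyde, 1 ug/ml Hoechst) was added. Nuclei counted on 4× images gave relative viability as treated counts over vehicle counts, reported as the median of duplicate plates.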

Compound in the test “Darinaparsin + Lapatinib”: C[As](C)SC[C@H](NC(=O)CC[C@H](N)C(=O)O)C(=O)NCC(=O)O [Darinaparsin] + CS(=O)(=O)CCNCc1ccc(-c2ccc3ncnc(Nc4ccc(OCc5cccc(F)c5)c(Cl)c4)c3c2)o1 [Lapatinib] (partner 2 µM)
The procedure, abridged:
as §1

Compound in the test “AZ628 + Olaparib”: CC1=C(C=C(C=C1)NC(=O)C2=CC(=CC=C2)C(C)(C)C#N)NC3=CC4=C(C=C3)N=CN(C4=O)C [AZ628] + O=C(c1cc(Cc2n[nH]c(=O)c3ccccc23)ccc1F)N1CCN(C(=O)C2CC2)CC1 [Olaparib] (partner 8 µM)
The procedure, abridged: as §1

Compound in test [1]: C[As](C)SC[C@H](NC(=O)CC[C@H](N)C(=O)O)C(=O)NCC(=O)O [Darinaparsin] + Nc1ncn([C@H]2C[C@H](O)[C@@H](CO)O2)c(=O)n1 [Decitabine] (partner 2 µM)
The procedure, abridged: as §1

Regarding SK-MES-1, the relative viability in the test with AZ628 + Luminespib (first compound 0.08 µM) came to 0.848; in the test with AZ628 + Luminespib (first compound 0.253 µM) it was 0.72; with AZ628 + Luminespib (first compound 0.8 µM), 0.574; in the test with AZ628 + Luminespib (first compound 2.53 µM), 0.598; with AZ628 + Luminespib (first compound 8 µM), 0.386; with Darinaparsin + Lapatinib (first compound 0.08 µM), 0.539. For the same cell line, the relative viability with Darinaparsin + Lapatinib (first compound 0.8 µM) was determined as 0.444; with Darinaparsin + Lapatinib (first compound 2.53 µM) it was 0.439; with Darinaparsin + Lapatinib (first compound 8 µM) it was 0.519; with AZ628 + Olaparib (first compound 0.08 µM), 0.693; in the test with AZ628 + Olaparib (first compound 0.253 µM) it was 0.824; with AZ628 + Olaparib (first compound 0.8 µM), 0.9. For the same cell line, the relative viability came out at 0.737 in the test with AZ628 + Olaparib (first compound 2.53 µM); 0.392 with AZ628 + Olaparib (first compound 8 µM); 0.358 in test [1] (first compound 0.08 µM); 0.357 in test [1] (first compound 0.8 µM); 0.34 in test [1] (first compound 2.53 µM); 0.388 in test [1] (first compound 8 µM).

For SW 1573, the relative viability worked out at 0.315 with AZ628 + Luminespib (first compound 0.08 µM); 0.258 with AZ628 + Luminespib (first compound 0.253 µM); 0.16 in the test with AZ628 + Luminespib (first compound 0.8 µM); 0.189 with AZ628 + Luminespib (first compound 2.53 µM); 0.171 in the test with AZ628 + Luminespib (first compound 8 µM); 1.1 in the test with Darinaparsin + Lapatinib (first compound 0.08 µM). For the same cell line, the relative viability was 1.1 with Darinaparsin + Lapatinib (first compound 0.8 µM); 1.09 in the test with Darinaparsin + Lapatinib (first compound 2.53 µM); 1.22 in the test with Darinaparsin + Lapatinib (first compound 8 µM); 0.462 in the test with AZ628 + Olaparib (first compound 0.08 µM); 0.423 in the test with AZ628 + Olaparib (first compound 0.253 µM); 0.365 in the test with AZ628 + Olaparib (first compound 0.8 µM). Moreover, the relative viability in the test with AZ628 + Olaparib (first compound 2.53 µM) is 0.374; with AZ628 + Olaparib (first compound 8 µM) it was 0.346; in test [1] (first compound 0.08 µM), 0.564; in test [1] (first compound 0.8 µM), 0.468; in test [1] (first compound 2.53 µM) it was 0.61; in test [1] (first compound 8 µM), 0.555.

For UMC-11, the relative viability with AZ628 + Luminespib (first compound 0.08 µM) came out at 1.16; with AZ628 + Luminespib (first compound 0.253 µM), 0.999; with AZ628 + Luminespib (first compound 0.8 µM), 0.973; in the test with AZ628 + Luminespib (first compound 2.53 µM), 0.98; with AZ628 + Luminespib (first compound 8 µM), 1.17; with Darinaparsin + Lapatinib (first compound 0.08 µM), 1.22. Further, the relative viability with Darinaparsin + Lapatinib (first compound 0.8 µM) stood at 0.977; with Darinaparsin + Lapatinib (first compound 2.53 µM), 0.928; with Darinaparsin + Lapatinib (first compound 8 µM) it was 1.05; with AZ628 + Olaparib (first compound 0.08 µM), 0.393; in the test with AZ628 + Olaparib (first compound 0.253 µM) it was 0.357; with AZ628 + Olaparib (first compound 0.8 µM), 0.291. The relative viability came to 0.344 in the test with AZ628 + Olaparib (first compound 2.53 µM); 0.331 with AZ628 + Olaparib (first compound 8 µM); 0.563 in test [1] (first compound 0.08 µM); 0.574 in test [1] (first compound 0.8 µM); 0.636 in test [1] (first compound 2.53 µM); 0.677 in test [1] (first compound 8 µM).
